For this assay, the target named is T1, cloned rat PDE10A full-length enzyme (Rattus norvegicus, UniProt Q9QYJ6).
T1 construct: cloned rat PDE10A full-length enzyme grown in transfected Sf9 insect cells; made in house; host or cells: Sf9 insect cells
T1 sequence (Q9QYJ6 1-794): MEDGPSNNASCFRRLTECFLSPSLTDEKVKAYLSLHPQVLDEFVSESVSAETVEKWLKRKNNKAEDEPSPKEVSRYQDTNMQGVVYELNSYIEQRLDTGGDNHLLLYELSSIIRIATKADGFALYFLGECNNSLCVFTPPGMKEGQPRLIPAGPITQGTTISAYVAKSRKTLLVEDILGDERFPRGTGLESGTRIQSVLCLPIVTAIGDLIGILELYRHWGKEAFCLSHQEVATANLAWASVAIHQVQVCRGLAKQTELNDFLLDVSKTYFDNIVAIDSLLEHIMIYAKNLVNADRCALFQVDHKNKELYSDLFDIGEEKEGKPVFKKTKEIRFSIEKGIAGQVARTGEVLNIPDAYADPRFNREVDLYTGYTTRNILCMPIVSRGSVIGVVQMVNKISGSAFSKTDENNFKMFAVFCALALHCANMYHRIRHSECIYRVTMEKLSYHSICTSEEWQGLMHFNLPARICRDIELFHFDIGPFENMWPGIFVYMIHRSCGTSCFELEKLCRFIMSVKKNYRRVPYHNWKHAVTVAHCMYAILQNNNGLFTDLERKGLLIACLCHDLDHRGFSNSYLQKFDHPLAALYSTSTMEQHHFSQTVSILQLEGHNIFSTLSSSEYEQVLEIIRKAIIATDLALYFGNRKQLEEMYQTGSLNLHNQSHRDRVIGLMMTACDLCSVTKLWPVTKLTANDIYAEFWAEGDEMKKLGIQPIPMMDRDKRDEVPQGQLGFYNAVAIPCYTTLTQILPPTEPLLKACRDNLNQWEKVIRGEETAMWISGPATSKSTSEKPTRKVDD
Put plainly: PDE10 enzyme inhibition, [3H]cAMP scintillation proximity assay. Type of assay: biochemical. Particulars: rat PDE10A from Sf9 cells, 20 nM [3H]cAMP, SPA beads, 20 minute incubation at room temperature. On the procedure:
Compounds of the present invention were evaluated for ability to inhibit PDE10 enzyme with the following Assay procedure
The enzyme used in the procedure was cloned rat PDE10A full-length enzyme grown in transfected Sf9 insect cells. Cloned enzyme was extracted from homogenized cell pellets and stored frozen in homogenizing buffer until use. Compounds were initially dissolved in 100% DMSO and diluted out in 20 percent DMSO/water solution. Final concentration of DMSO in the assay was 2 percent as compounds were tested in triplicate in 96 well plates. Compound solution was placed in well, then tritiated cyclic AMP (New England Nuclear NET275) in assay buffer was added at 20 nM concentration. Then PDE10 enzyme in assay buffer of 50 mM Tris, 8.3 mM MgCl2, pH 7.5 at room temperature was added for a final assay volume of 100 ul. Concentration of enzyme was added such that less than 10 percent of [3H]cAMP at 20 nM was converted to detectable end product, [3H]AMP bound to SPA (Scintillation Proximity Assay) beads. Phosphodiesterase scintillation proximity yttrium silicate beads from Amersham Biosciences (RPNQ0150) were added (50 ul at 20 mg/ml) after a 20 minute incubation at room temperature. Zinc sulphate as a component of the beads stops the phosphodiesterase reaction.
Non-specific binding to SPA beads was determined by addition of 1 uM papaverine. Total conversion by enzyme without inhibitor of [3H]cAMP to [3H]AMP, as detected by scintillation of [3H]AMP bound to yttrium silicate beads, was determined in the presence of vehicle-only.

The record followed here is patent US20080090834A1, “SELECTIVE AZOLE PDE10A INHIBITOR COMPOUNDS” (Pfizer Inc, priority 2006, published 2008).

Where a name gives a salt, the structure may show the parent alone.

In turn, “3-(4-(5-(4-methoxyphenyl)-2-(thiophen-2-yl)-1H-imidazol-4-yl)phenyl)-3H-imidazol[4,5-b]pyridine and 1-(4-(5-(4-methoxyphenyl)-2-(thiophen-2-yl)-1H-imidazo[4,5-b]pyridine [Example 101]” yielded an IC50 of 0.708 nM.
The same measure for `c1ccc(-c2cn(-c3cccnc3)c(-c3ccc(-n4cnc5ncccc54)cc3)n2)nc1` (single isomer, unassigned) [Example 46, 1-(4-(4-(pyridin-2-yl)-1-(pyridin-3-yl)-1H-imidazol-2-yl)phenyl)-1H-imidazo[4,5-b]pyridine bis-trifluororoacetic acid salt]: 231 nM.
As for `Cc1ccc(-n2cc(-c3ccccn3)nc2-c2ccc(-n3cnc4ncccc43)cc2)cn1` (single isomer, unassigned) [Example 48], the figure is 63.7 nM.
As for `Cc1ccc(-n2cc(-c3ccccn3)nc2-c2ccc(-n3cnc4cccnc43)cc2)cn1` (single isomer, unassigned) [Example 49, 3-(4-(1-(6-methylpyridin-3-yl)-4-(pyridin-2-yl)-1H-imidazol-2-yl)phenyl)-3H-imidazo[4,5-b]pyridine], the figure is 5.5 nM; as for `COc1ccc(-n2cc(-c3cccs3)nc2-c2ccc(-n3ccc4cccnc43)cc2)cc1` [Example 1], 3.35 nM; as for `COc1ccc(-n2cc(-c3nccs3)nc2-c2ccc(-n3ccc4cccnc43)cc2)cc1` [Example 2, 1-(4-(1-(4-methoxyphenyl)-4-(thiazol-2-yl)-1H-imidazol-2-yl)phenyl)-1H-pyrrolo[2,3-b]pyridine], 156 nM.
`c1cnc2c(c1)ccn2-c1ccc(-c2nc(-c3nccs3)cn2-c2nccs2)cc1` [Example 3, 1-(4-(1,4-di(thiazol-2-yl)-1H-imidazol-2-yl)phenyl)-1H-pyrrolo[2,3-b)pyridine] yielded an IC50 of 1610 nM.
The same measure for `c1ccc(-c2cn(-c3cncnc3)c(-c3ccc(-n4ccc5cccnc54)cc3)n2)nc1` [Example 4]: 13.6 nM; for `Cc1cc(-n2cc(-c3ccccn3)nc2-c2ccc(-n3ccc4cccnc43)cc2)ccn1` [Example 5, 1-(4-(1-(2-methylpyridin-4-(pyridin-2-yl)-1H-imidazol-2-yl)-1H-imidazol-2-yl)phenyl)-1H-pyrrolo[2,3-b]pyridine]: 4.62 nM.
The same measure for `Cc1ccc(-n2cc(-c3ccccn3)nc2-c2ccc(-n3ccc4cccnc43)cc2)cn1` [Example 6, 1-(4-(1-(6-methylpyridine-3-yl)-4-(pyridin-2-yl)-1H-imidazol-2-yl)phenyl)-1H-pyrrolo[2,3-b]pyridine]: 3.21 nM; for `c1ccc(-c2cn(-c3ccc(-n4ccnc4)nc3)c(-c3ccc(-n4ccc5cccnc54)cc3)n2)nc1` [Example 8, 1-(4-(1-(6-(1H-imidazol-1-yl)pyridin-3-yl)-4-(pyridin-2-yl)-1H-imidazol-2-yl)phenyl)-1-H-pyrrolo[2,3-b]pyridine]: 1.48 nM; for `COc1ccc(-n2cc(-c3ccccn3)nc2-c2ccc(-n3ccc4cccnc43)cc2)cn1` [Example 9, 1-(4-(1-(6-methoxypyridin-3-yl)-4-(pyridin-2-yl)-1H-imidazol-2-yl)phenyl)-1H-pyrrolo[2,3-b]pyridine]: 3.07 nM.
As to `CN(C)CCc1cn(-c2ccc(-c3nc(-c4ccccn4)cn3-c3cccnc3)cc2)c2ncccc12` [Example 10, N,N-dimethyl-2-(1-(4-(4-(pyridin-2-yl)-1-(pyridin-3-yl)-1H-imidazol-2-yl)phenyl)-1H-pyrrolo[2,3-b]pyridin-3-yl)ethanamine], the IC50 was 8.99 nM.
The molecule `Fc1cc(-n2ccc3cccnc32)ccc1-c1nc(-c2ccccn2)cn1-c1cccnc1` [Example 11, 1-(3-fluoro-4-(4-(pyridin-2-yl)-1-(pyridin-3-yl)-1H-imidazol-2-yl)phenyl)-1H-pyrrolo[2,3-b]pyridine] showed an IC50 of 4.14 nM.
The same measure for `Cc1ccc(-n2cc(-c3ccccn3)nc2-c2ccc(-n3ccc4cccnc43)c(C)c2)cn1` [Example 12, 1-(2-methyl-4-(1-(6-methylpyridin-3-yl)-4-(pyridin-2-yl)-1H-imidazol-2-yl)phenyl)-1H-pyrrolo[2,3-b]pyridine]: 31.7 nM; for `Cc1ccc(-n2cc(-c3ccccn3)nc2-c2ccc(-n3ccc4cccnc43)cc2C)cn1` [Example 13, 1-(3-methyl-4-(1-(6-methylpyridin-3-yl)-4-(pyridin-2-yl)-1H-imidazol-2-yl)phenyl)-1H-pyrrolo[2,3-b]pyridin]: 37.1 nM.
As for `Cc1ccc(-n2cc(-c3cccc[n+]3[O-])nc2-c2ccc(-n3ccc4cccnc43)cc2)c[n+]1[O-]` [Example 15], the figure is 16.4 nM; as for `Cc1ccc(-n2cc(-c3cccc[n+]3[O-])nc2-c2ccc(-n3ccc4cccnc43)cc2)cn1` [Example 16, 1-(4-(1-(6-methylpyridin-3-yl)-4-(1-oxido-pyridin-2-yl)-1H-imidazol-2-yl)phenyl)-1H-pyrrolo[2,3-b]pyridine], 12.3 nM; as for `c1ccc(-c2cn(-c3cccnc3)c(-c3ccc(-n4c5c(c6cccnc64)CSCC5)cc3)n2)nc1` [Example 17, 9-[4-(4-pyridin-2-yl-1-pyridin-3-yl-1H-imidazol-2-yl)phenyl]-5,7,8,9-tetrahydrothiopyrano[3′,4′,4,5]pyrrolo[2,3-b]pyridine], 0.912 nM.
As for `CN(C)Cc1cn(-c2ccc(-c3nc(-c4ccccn4)cn3-c3cccnc3)cc2)c2ncccc12` [Example 18, N,N-dimethyl(1-(4-(4-(pyridin-2-yl)-1-(pyridin-3-yl)-1H-imidazol-2-yl)phenyl)-1H-pyrrolo[2,3-b]pyridin-3-yl)methanamine TFA salt], the figure is 24.3 nM; as for `c1ccc(-c2cn(-c3cccnc3)c(-c3ccc(-n4c5ccccc5c5cccnc54)cc3)n2)nc1` [Example 19, 9-(4-(4-(pyridin-2-yl)-1-(pyridin-3-yl)-1H-imidazol-2-yl)phenyl)-9H-pyrido[2,3-b]indole], 0.992 nM.
`Cc1ccc(-n2cc(-c3ccccn3)nc2-c2ccc(-n3ccc4cc(Cl)cnc43)cc2)cn1` [Example 20, 5-chloro-1-(4-(4-pyridin-2-yl)-1-(6-methylpyridin-3-yl-1H-imidazol-2-yl)phenyl)-1H-pyrrolo[2,3-b]pyridine] displayed an IC50 of under 2.72 nM.
The same measure for `Cc1ccc(-n2cc(-c3ccccn3)nc2-c2ccc(-n3ccc4cc(F)cnc43)cc2)cn1` [Example 21, 5-fluoro-1-(4-(1-(6-methylpyridin-3-yl)-4-(pyridin-2x-yl)-1H-imidazol-2-yl)phenyl)-1H-pyrrolo-[2,3-b]pyridine]: 2.82 nM; for `Cc1cnc2c(ccn2-c2ccc(-c3nc(-c4ccccn4)cn3-c3ccc(C)nc3)cc2)c1` [Example 22, 5-methyl-1-(4-(1-[6-methylpyridin-3-yl)-4-(pyridin-2-yl)-1H-imidazol-2-yl)phenyl)-1H-pyrrolo[2,3-b]pyridine]: 12.1 nM.
The same measure for `C#Cc1cc(C)cnc1N` [Example 22A, 3-ethynyl-5-methylpyridin-2-amine]: 3.35 nM; for `c1ccc(-n2cc(-c3nccs3)nc2-c2ccc(-n3ccc4cccnc43)cc2)nc1` [Example 24]: 13.4 nM.
As for `c1cnc2c(c1)ccn2-c1ccc(-c2nc(-c3nccs3)cn2-c2ccncc2)cc1` [Example 25, 1-(4-(1-(pyridin-4-yl)-4-(thiazol-2-yl)-1H-imidazol-2-yl)phenyl)-1H-pyrrolo[2,3-b]pyridine], the figure is 4.46 nM; as for `c1cnc2c(c1)ccn2-c1ccc(-c2nc(-c3nccs3)cn2-c2cncnc2)cc1` [Example 26, 1-(4-(1-(pyrimidin-5-yl)-4-(thiazol-2-yl)-1H-imidazol-2-yl)phenyl)-1H-pyrrolo[2,3-b]pyridine], 4.4 nM.
`Cc1ccc(-n2cc(-c3nccs3)nc2-c2ccc(-n3ccc4cccnc43)cc2)cn1` [Example 27, 1-(4-(1-(6-methylpyridin-3-yl)-4-(thiazol-2-yl)-1H-imidazol-2-yl)phenyl)-1H-pyrrolo[2,3-b]pyridine] yielded an IC50 of 1.48 nM.
